Counter-ions that a name gives are not always drawn.
Columns and labels:
[1] = system: circular muscle of human vas deferens; experiment: IC50 against contractions evoked by high K+ (120 mM) in the presence of FPL 64176, circular muscle rings; conditions: Homo sapiens; contractions evoked by K+ (120 mM) in the presence of FPL 64176 (1 μM); means ± S.E.M.
Text: (§1) Human vas deferens specimens were obtained after elective vasectomies of healthy fertile men. College ethical approval and the consent of patients were obtained. The specimens were placed in ice-cold Krebs' medium, dissected-free of connective tissue/blood vessels and cut longitudinally into strips (longitudinal muscle preparations; 5-10 mm long & 1 mm wide) or transversely into rings (circular muscle preparations; 3 mm in length). The longitudinal and circular muscle preparations were then set up for tension recording (resting tension 5-7 mN) in a Perspex chamber superfused at 2 ml per min with Krebs' medium (36° C.) composed of (mM): NaCl, 118.8; NaHCO3, 25; KCl, 4.7; CaCl2.2H2O, 2.5; KH2PO4, 1.2; MgSO4.7H2O, 1.2; glucose, 11.1; ascorbic acid 0.1 and continuously gassed with 95% O2 and 5% CO2. Contractile responses were recorded via a Harvard-type force-displacement transducer. The analog signals were digitised using CIO-Das 16/Jr data acquisition software (Amplicon Liveline, Brighton, UK) and re-plotted on a microcomputer.
(§2) Tissues were equilibrated for 180 min in Krebs' medium containing inhibitors of extraneuronal and neuronal reuptake of noradrenaline, oestradiol (1 μM) and desipramine (0.1 μM) respectively, inhibitors of catechol-O-methyltransferase and monoamine oxidase, tropolone (10 μM) and iproniazid (10 μM) respectively and the β-adrenoceptor blocker, propranolol (1 μM). At the end of the equilibration period, the tissues were stimulated with noradrenaline (100 μM). […] After a contact time of 30-40 min in this medium, different experimental protocols (described below) were adopted in order to • (a) Elucidate the contractile actions of L-type Ca^2+ agonists such as FPL 64176 or Bay K 8644. In these experiments, tissues were exposed to FPL 64176 (0.1-10 μM added cumulatively) or in separate experiments Bay K 8644 (0.1-10 μM added cumulatively). • (b) Investigate the effects of various diphenylalkylamines and conventional L-type Ca^2+ antagonists (methoxyverapamil or nifedipine) on contractions evoked by high concentrations of extracellular potassium (high [K^+]o) in the presence of L-type Ca^2+ agonists, FPL 64176 (1 μM) or Bay K 8644 (1 μM). In this protocol, tissues were stimulated with high [K^+]O (10, 30 and 120 mM at 10-15 min intervals) in normal Krebs' medium, then exposed to L-type Ca^2+ agonists for 20-30 min and subsequently stimulated with high [K^+]O (10, 30 and 120 mM) in the presence of the drugs. These provided the initial responses. Following this and in the continuous presence of the L-type Ca^2+ agonists, the tissues were exposed additionally to L-type Ca^2+ antagonists (conventional or diphenylalkylamines) or drug-free vehicle medium. After contact times of 25-50 min the tissues were stimulated, first with high [K^+]O (either 30 mM or 120 mM) in order to take account of the well-documented use-dependent action of the diphenylalkylamine Ca^2+ antagonists. Following recovery from the test contraction and after a further 30-40 min, the tissues were then stimulated with high [K^+]o (10, 30 and 120 mM). This protocol is illustrated in FIGS. 3 and 4. The resulting contractions were measured (see below) and expressed as a percentage of corresponding initial responses to high [K^+]o evoked in the presence of L-type Ca^2+ agonists (i.e. before exposure to L-type Ca^2+ antagonists). […] Subsequent analysis (see below) was between contractions of drug-treated tissues and time-matched controls • (c) Determine the inhibitory potencies (IC50 values) of various diphenylalkylamines and phenothiazines and conventional L-type Ca^2+ antagonists (nifedipine and methoxyverapamil) against contractions evoked in longitudinal and circular muscle of human vas deferens by high [K^+]o (120 mM) in the presence of FPL 64176. In these experiments, tissues were stimulated with high [K^+]o (120 mM); sequentially in normal Krebs' medium and after 25-30 min exposure to the L-type Ca^2+ agonist, FPL 64176, (1 μM, Initial response). […]

[2] = system: longitudinal muscle of human vas deferens; experiment: IC50 against contractions evoked by high K+ (120 mM) in the presence of FPL 64176, longitudinal muscle strips; conditions: Homo sapiens; contractions evoked by K+ (120 mM) in the presence of FPL 64176 (1 μM); means ± S.E.M.
Text: as §1, §2

[3] = system: circular muscle of human vas deferens; experiment: Inhibition at fixed concentration of contractions evoked by high K+ in the presence of FPL 64176, circular muscle; conditions: [K+]o 30 mM in the presence of FPL 64176 (1.0 μM); drug 10 μM; hydrochloride
Text: as §1
Tissues were equilibrated for 180 min in Krebs' medium containing inhibitors of extraneuronal and neuronal reuptake of noradrenaline, oestradiol (1 μM) and desipramine (0.1 μM) respectively, inhibitors of catechol-O-methyltransferase and monoamine oxidase, tropolone (10 μM) and iproniazid (10 μM) respectively and the β-adrenoceptor blocker, propranolol (1 μM). At the end of the equilibration period, the tissues were stimulated with noradrenaline (100 μM). […] After a contact time of 30-40 min in this medium, different experimental protocols (described below) were adopted in order to • (a) Elucidate the contractile actions of L-type Ca^2+ agonists such as FPL 64176 or Bay K 8644. In these experiments, tissues were exposed to FPL 64176 (0.1-10 μM added cumulatively) or in separate experiments Bay K 8644 (0.1-10 μM added cumulatively). • (b) Investigate the effects of various diphenylalkylamines and conventional L-type Ca^2+ antagonists (methoxyverapamil or nifedipine) on contractions evoked by high concentrations of extracellular potassium (high [K^+]o) in the presence of L-type Ca^2+ agonists, FPL 64176 (1 μM) or Bay K 8644 (1 μM). In this protocol, tissues were stimulated with high [K^+]O (10, 30 and 120 mM at 10-15 min intervals) in normal Krebs' medium, then exposed to L-type Ca^2+ agonists for 20-30 min and subsequently stimulated with high [K^+]O (10, 30 and 120 mM) in the presence of the drugs. These provided the initial responses. Following this and in the continuous presence of the L-type Ca^2+ agonists, the tissues were exposed additionally to L-type Ca^2+ antagonists (conventional or diphenylalkylamines) or drug-free vehicle medium. After contact times of 25-50 min the tissues were stimulated, first with high [K^+]O (either 30 mM or 120 mM) in order to take account of the well-documented use-dependent action of the diphenylalkylamine Ca^2+ antagonists. Following recovery from the test contraction and after a further 30-40 min, the tissues were then stimulated with high [K^+]o (10, 30 and 120 mM). This protocol is illustrated in FIGS. 3 and 4. The resulting contractions were measured (see below) and expressed as a percentage of corresponding initial responses to high [K^+]o evoked in the presence of L-type Ca^2+ agonists (i.e. before exposure to L-type Ca^2+ antagonists). […]

[4] = system: longitudinal muscle of human vas deferens; experiment: Inhibition of contractions evoked by high K+ in the presence of Bay K 8644, longitudinal muscle; conditions: [K+]o 30 mM & 120 mM in the presence of Bay K 8644 (1 μM)
Description: (§3) Human vas deferens specimens were obtained after elective vasectomies of healthy fertile men. College ethical approval and the consent of patients were obtained. The specimens were placed in ice-cold Krebs' medium, dissected-free of connective tissue/blood vessels and cut longitudinally into strips (longitudinal muscle preparations; 5-10 mm long & 1 mm wide) or transversely into rings (circular muscle preparations; 3 mm in length). […] Contractile responses were recorded via a Harvard-type force-displacement transducer. […]
(§4) Tissues were equilibrated for 180 min in Krebs' medium containing inhibitors of extraneuronal and neuronal reuptake of noradrenaline, oestradiol (1 μM) and desipramine (0.1 μM) respectively, inhibitors of catechol-O-methyltransferase and monoamine oxidase, tropolone (10 μM) and iproniazid (10 μM) respectively and the β-adrenoceptor blocker, propranolol (1 μM). […] The resulting contractions were measured (see below) and expressed as a percentage of corresponding initial responses to high [K^+]o evoked in the presence of L-type Ca^2+ agonists (i.e. before exposure to L-type Ca^2+ antagonists). […]

[5] = system: circular muscle of human vas deferens; experiment: Inhibition of contractions evoked by high K+ in the presence of Bay K 8644, circular muscle; conditions: [K+]o 30 mM & 120 mM in the presence of Bay K 8644 (1 μM)
Description: as §3, §4

Compound	IC50 [1] [µM]	IC50 [2] [nM]	inhibition of circular muscle contractions compared to time-matched controls [3] [%]	inhibition of longitudinal muscle contractions relative to time-matched controls ([4]; drug 10 μM)	inhibition of circular muscle contractions relative to time-matched controls ([5]; drug 10 μM)	inhibition at 1 µM ([4]; Homo sapiens, drug 1 μM, read-out: inhibition of longitudinal muscle contractions relative to time-matched controls) [%]	inhibition at 1 µM ([5]; Homo sapiens, drug 1 μM, read-out: inhibition of circular muscle contractions relative to time-matched controls) [%]
CC(NCCC(c1ccccc1)c1ccccc1)c1ccccc1 (stereo not drawn) [Fendiline, fendiline hydrochloride]	17.4 ± 5.8	3800 ± 900	35	73-80%	0-20%		
COC(=O)C1=C(C)NC(C)=C(C(=O)OC)C1c1ccccc1[N+](=O)[O-] [Nifedipine, nifedipine]	0.00219 ± 0.0005	2.16 ± 0.8				66 to 73	66 to 73

Reference: patent publication US8927579B2, “Male contraceptive” (priority 2007, dated 2015)
